Measurements published in publication PMC3230330 (Bioorganic & medicinal chemistry, 2011).
Read-outs that look alike come from different tables or passages of the source.

Experiments:
BoNT/A LC [1] = target: T1, BoNT/A LC (Clostridium botulinum, UniProt P0DPI0); assay: biochemical; type: biochemical
Anthrax LF = Anthrax LF (Bacillus anthracis, UniProt P15917); assay: biochemical
human MMP-1 = human MMP-1 (Homo sapiens, UniProt P03956); type: biochemical
human MMP-2 = human MMP-2 (Homo sapiens, UniProt P08253); type: biochemical
human MMP-9 = human MMP-9 (Homo sapiens, UniProt P14780); type: biochemical
BoNT/A LC [2] = target: T1, BoNT/A LC; type: biochemical
BoNT/A LC [3] = target: T1, BoNT/A LC; type: biochemical; remark: listed apart in the source
BoNT/B LC = conditions: cited from earlier work
BoNT/A LC [4] = target: T1, BoNT/A LC; conditions: cited from earlier work

T1 sequence (P0DPI0 2-448 limits assumed): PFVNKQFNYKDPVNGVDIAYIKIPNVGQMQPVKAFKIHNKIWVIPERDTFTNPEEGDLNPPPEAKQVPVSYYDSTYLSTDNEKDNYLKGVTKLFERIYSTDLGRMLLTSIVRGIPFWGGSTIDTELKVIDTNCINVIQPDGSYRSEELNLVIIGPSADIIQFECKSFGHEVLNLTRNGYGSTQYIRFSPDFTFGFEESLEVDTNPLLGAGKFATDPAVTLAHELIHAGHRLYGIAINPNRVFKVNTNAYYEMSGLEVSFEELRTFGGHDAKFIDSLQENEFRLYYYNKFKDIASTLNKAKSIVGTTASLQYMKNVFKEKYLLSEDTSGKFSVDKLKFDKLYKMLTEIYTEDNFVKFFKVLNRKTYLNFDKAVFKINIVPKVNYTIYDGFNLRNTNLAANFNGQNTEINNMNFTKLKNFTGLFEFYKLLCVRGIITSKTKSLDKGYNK
Anthrax LF, sequence (P15917 34-809 limits assumed): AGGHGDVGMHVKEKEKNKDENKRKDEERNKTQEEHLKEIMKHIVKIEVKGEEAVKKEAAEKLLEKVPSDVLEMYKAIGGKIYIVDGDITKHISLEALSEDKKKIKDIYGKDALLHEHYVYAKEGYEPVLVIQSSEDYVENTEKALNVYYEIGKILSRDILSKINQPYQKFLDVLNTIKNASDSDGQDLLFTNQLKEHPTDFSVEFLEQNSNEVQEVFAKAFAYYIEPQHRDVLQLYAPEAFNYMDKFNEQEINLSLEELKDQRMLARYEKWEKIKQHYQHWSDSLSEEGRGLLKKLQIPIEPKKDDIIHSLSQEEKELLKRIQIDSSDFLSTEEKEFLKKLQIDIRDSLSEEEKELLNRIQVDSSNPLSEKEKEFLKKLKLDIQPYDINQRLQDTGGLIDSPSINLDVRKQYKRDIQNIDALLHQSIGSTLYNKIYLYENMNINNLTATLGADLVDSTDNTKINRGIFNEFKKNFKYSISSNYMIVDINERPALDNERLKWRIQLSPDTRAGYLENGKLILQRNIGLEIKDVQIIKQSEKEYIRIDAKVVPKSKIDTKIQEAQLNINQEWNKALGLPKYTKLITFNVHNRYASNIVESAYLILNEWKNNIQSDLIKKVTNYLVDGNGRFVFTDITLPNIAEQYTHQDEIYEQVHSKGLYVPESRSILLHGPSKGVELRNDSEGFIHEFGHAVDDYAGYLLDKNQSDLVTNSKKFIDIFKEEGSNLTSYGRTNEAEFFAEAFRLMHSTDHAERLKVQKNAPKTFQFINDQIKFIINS
human MMP-1, sequence (P03956 100-469): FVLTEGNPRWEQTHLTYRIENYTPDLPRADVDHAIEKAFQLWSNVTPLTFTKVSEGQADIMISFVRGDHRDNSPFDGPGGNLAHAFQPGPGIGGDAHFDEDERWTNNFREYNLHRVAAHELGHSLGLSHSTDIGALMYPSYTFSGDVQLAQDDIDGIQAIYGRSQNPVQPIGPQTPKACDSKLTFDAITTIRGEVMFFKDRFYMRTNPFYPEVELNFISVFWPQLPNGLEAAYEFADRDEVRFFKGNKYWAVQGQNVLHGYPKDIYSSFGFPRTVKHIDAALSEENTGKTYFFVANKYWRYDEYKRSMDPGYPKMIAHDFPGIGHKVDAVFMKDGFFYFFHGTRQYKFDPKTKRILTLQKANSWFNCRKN
human MMP-2, sequence (P08253 110-660): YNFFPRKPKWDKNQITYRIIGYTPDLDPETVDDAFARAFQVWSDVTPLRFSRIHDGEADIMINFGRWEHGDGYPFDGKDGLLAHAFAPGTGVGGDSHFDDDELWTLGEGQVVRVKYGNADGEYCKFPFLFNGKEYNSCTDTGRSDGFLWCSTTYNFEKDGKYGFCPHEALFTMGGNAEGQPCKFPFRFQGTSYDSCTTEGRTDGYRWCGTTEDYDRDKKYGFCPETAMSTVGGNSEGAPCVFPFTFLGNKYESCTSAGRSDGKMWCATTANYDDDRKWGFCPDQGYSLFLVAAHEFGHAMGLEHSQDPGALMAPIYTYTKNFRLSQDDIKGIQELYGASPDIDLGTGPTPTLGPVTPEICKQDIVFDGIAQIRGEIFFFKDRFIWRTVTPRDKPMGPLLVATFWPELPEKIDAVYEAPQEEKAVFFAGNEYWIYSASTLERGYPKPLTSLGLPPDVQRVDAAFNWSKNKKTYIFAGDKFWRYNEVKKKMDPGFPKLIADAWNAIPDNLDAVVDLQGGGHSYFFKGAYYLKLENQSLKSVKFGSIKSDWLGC
human MMP-9, sequence (P14780 94-707): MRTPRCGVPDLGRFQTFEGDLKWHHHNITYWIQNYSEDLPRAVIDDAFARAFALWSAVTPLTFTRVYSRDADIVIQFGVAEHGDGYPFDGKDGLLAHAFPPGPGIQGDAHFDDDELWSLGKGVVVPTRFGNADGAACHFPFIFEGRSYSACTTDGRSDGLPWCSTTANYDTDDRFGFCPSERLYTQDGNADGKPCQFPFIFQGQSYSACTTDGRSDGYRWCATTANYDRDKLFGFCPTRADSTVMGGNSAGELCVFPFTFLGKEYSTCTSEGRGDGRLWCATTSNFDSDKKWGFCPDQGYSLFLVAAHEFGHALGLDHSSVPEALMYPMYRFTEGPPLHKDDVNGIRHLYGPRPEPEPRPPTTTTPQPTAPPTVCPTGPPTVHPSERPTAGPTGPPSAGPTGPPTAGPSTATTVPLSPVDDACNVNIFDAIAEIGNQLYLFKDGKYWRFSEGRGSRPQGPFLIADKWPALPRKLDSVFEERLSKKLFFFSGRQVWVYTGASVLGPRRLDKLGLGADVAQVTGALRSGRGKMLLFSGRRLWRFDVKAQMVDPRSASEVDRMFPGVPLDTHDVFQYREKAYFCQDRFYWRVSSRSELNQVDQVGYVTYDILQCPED

Compound: COc1cc(C=C(C#N)c2nc3ccccc3[nH]2)cc(O)c1OC [Compound 8k, 2-(1H-Benzo[d]imidazol-2-yl)-3-(3-hydroxy-4,5-dimethoxyphenyl)acrylonitrile]
- BoNT/A LC inhibitory potency (in words) (BoNT/A LC [1]): significantly decreased or diminished activity
- IC50 (BoNT/A LC [1]): > 100 µM
- IC50 (Anthrax LF): > 100 µM

Compound: Cc1ccc(/C=C(\C#N)c2nc3ccccc3[nH]2)s1 [Compound 12a, 2-(1H-Benzo[d]imidazol-2-yl)-3-(5-methylthiophen-2-yl)acrylonitrile]
- BoNT/A LC inhibitory potency (in words) (BoNT/A LC [1]): no BoNT/A LC inhibition

Compound: COc1ccc(/C=C(\C#N)c2nc3ccccc3[nH]2)cc1I [Compound 4]
- MMP-1 IC50 (human MMP-1): neither compound inhibited
- MMP-2 IC50 (human MMP-2): neither compound inhibited
- MMP-9 IC50 (human MMP-9): neither compound inhibited
- Inactivated by cysteine (BoNT/A LC [2]): inactivated
- Inactivated by glutathione (BoNT/A LC [2]): inactivated
- Inactivated by zinc chelation (BoNT/A LC [2]): neither are metal chelating agents
- manner of BoNT/A LC inhibition (BoNT/A LC [3]): time-dependent
- BoNT/B LC FRET IC50 (BoNT/B LC): neither 4 nor 5 inhibited
- kinetics with respect to the substrate (BoNT/A LC [4]): noncompetitive

Compound: COc1cc(/C=C(\C#N)c2nc3ccccc3[nH]2)cc(Cl)c1O [Compound 8g, 2-[1-Cyano-2-(3-chloro-5-methoxy-4-hydroxyphenyl)vinyl]benzimidazole]
- BoNT/A LC inhibitory potency (in words) (BoNT/A LC [1]): significantly decreased or diminished activity

Compound: N#C/C(=C\c1cccs1)c1nc2ccccc2[nH]1 [Compound 12c, 2-(1H-Benzo[d]imidazol-2-yl)-3-(thiophen-2-yl)acrylonitrile]
- BoNT/A LC inhibitory potency (in words) (BoNT/A LC [1]): no BoNT/A LC inhibition

Compound: N#C/C(=C\c1ccc(-c2cccs2)o1)c1nc2ccccc2[nH]1 [Compound 12e, 2-(1H-Benzo[d]imidazol-2-yl)-3-(5-(thiophen-2-yl)furan-2-yl)acrylonitrile hemiacetate]
- BoNT/A LC inhibitory potency (in words) (BoNT/A LC [1]): no activity was observed

Compound: N#C/C(=C\c1ccc(-c2ccco2)s1)c1nc2ccccc2[nH]1 [Compound 12d, 2-(1H-Benzo[d]imidazol-2-yl)-3-(5-(furan-2-yl)thiophen-2-yl)acrylonitrile]
- BoNT/A LC inhibitory potency (in words) (BoNT/A LC [1]): approximately two-fold less potent than 5

Compound: N#C/C(=C\c1ccc(-c2cccs2)s1)c1nc2ccccc2s1 [Compound 14b, 3-(2,2'-Bithiophen-5-yl)-2-(benzo[d]thiazol-2-yl)acrylonitrile]
- BoNT/A LC inhibitory potency (in words) (BoNT/A LC [1]): eliminated inhibitory potency

Compound: N#C/C(=C\c1ccc(-c2ccccc2)cc1)c1nc2ccccc2[nH]1 [Compound 8i, 2-(1H-Benzo[d]imidazol-2-yl)-3-(biphenyl-4-yl)acrylonitrile]
- BoNT/A LC inhibitory potency (in words) (BoNT/A LC [1]): significantly lower potency with respect to 4

Compound: N#C/C(=C\c1ccc(-c2cccs2)s1)c1nc2ccccc2[nH]1 [Compound 5, 3-(2,2'-Bithiophen-5-yl)-2-(1H-benzo[d]imidazol-2-yl)acrylonitrile]
- MMP-1 IC50 (human MMP-1): neither compound inhibited
- MMP-2 IC50 (human MMP-2): neither compound inhibited
- MMP-9 IC50 (human MMP-9): neither compound inhibited
- Inactivated by cysteine (BoNT/A LC [2]): no significant, non-specific reactivity
- Inactivated by glutathione (BoNT/A LC [2]): no significant, non-specific reactivity
- Inactivated by zinc chelation (BoNT/A LC [2]): neither are metal chelating agents
- manner of BoNT/A LC inhibition (BoNT/A LC [3]): time-dependent
- BoNT/B LC FRET IC50 (BoNT/B LC): neither 4 nor 5 inhibited
- kinetics with respect to the substrate (BoNT/A LC [4]): noncompetitive

Compound: N#C/C(=C\c1ccc(-c2cccs2)s1)c1ccc2ccccc2n1 [Compound 14d, 3-(2,2'-Bithiophen-5-yl)-2-(quinolin-2-yl)acrylonitrile]
- BoNT/A LC inhibitory potency (in words) (BoNT/A LC [1]): eliminated inhibitory potency

Compound: N#CC(=Cc1ccc(-n2ccnc2)cc1)c1nc2ccccc2[nH]1 [Compound 8j, 3-(4-(1H-Imidazol-1-yl)phenyl)-2-(1H-benzo[d]imidazol-2-yl)acrylonitrile]
- BoNT/A LC inhibitory potency (in words) (BoNT/A LC [1]): significantly lower potency with respect to 4
- IC50 (BoNT/A LC [1]): 73 µM
- IC50 (Anthrax LF): > 100 µM

Compound: 2-[1-Cyano-2-(2,4-dichloropyrimidin-3-yl)vinyl]-benzimidazole [Compound 10b]
- IC50 (Anthrax LF; read-out: Anthrax LF IC50): > 100 µM

Compound: 2-(1-Cyano-2-phenylvinyl)benzimidazole [Compound 8a]
- BoNT/A LC inhibitory potency (in words) (BoNT/A LC [1]): eliminated inhibitory potency

Compound: N#C/C(=C\c1ccc(-c2cccs2)s1)c1cc2ccccc2[nH]1 [Compound 14a, 3-(2,2'-Bithiophen-5-yl)-2-(1H-indol-2-yl)acrylonitrile]
- BoNT/A LC inhibitory potency (in words) (BoNT/A LC [1]): eliminated inhibitory potency

Compound: N#C/C(=C\c1ccc(-c2cccs2)s1)c1nc2ccccc2o1 [Compound 14c, 3-(2,2'-Bithiophen-5-yl)-2-(benzo[d]oxazol-2-yl)acrylonitrile]
- BoNT/A LC inhibitory potency (in words) (BoNT/A LC [1]): eliminated inhibitory potency

Compound: Cn1c(/C(C#N)=C/c2ccc(-c3cccs3)s2)[n+](C)c2ccccc21.[I-] [Compound 15, 2-(2-(2,2'-Bithiophen-5-yl)-1-cyanovinyl)-1,3-dimethyl-1H-benzo[d]imidazol-3-ium iodide]
- BoNT/A LC inhibitory potency (in words) (BoNT/A LC [1]): detrimental to potency

Compound: COc1ccc(/C=C(\C#N)c2nc3ccccc3[nH]2)cc1OC [Compound 8f, 2-(1H-Benzo[d]imidazol-2-yl)-3-(3,4-dimethoxyphenyl)acrylonitrile]
- BoNT/A LC inhibitory potency (in words) (BoNT/A LC [1]): eliminated inhibitory potency

Compound: Cc1cc(/C=C(\C#N)c2nc3ccccc3[nH]2)sc1C [Compound 12b, 2-(1H-Benzo[d]imidazol-2-yl)-3-(4,5-dimethylthiophen-2-yl)acrylonitrile]
- BoNT/A LC inhibitory potency (in words) (BoNT/A LC [1]): no BoNT/A LC inhibition

Compound: COc1cc(C=C(C#N)c2nc3ccccc3[nH]2)cc(Br)c1O [Compound 8h, 2-[1-Cyano-2-(3-bromo-5-methoxy-4-hydroxyphenyl)vinyl]benzimidazole]
- BoNT/A LC inhibitory potency (in words) (BoNT/A LC [1]): significantly decreased or diminished activity
- IC50 (BoNT/A LC [1]): 94 µM
- IC50 (Anthrax LF): > 100 µM
